Assay results published in US20250127857A1, “A COMPOSITION COMPRISING IL-36 AND/OR IL-18 FOR USE IN TREATING OCULAR DISORDERS” (THE PROVOST, FELLOWS, FOUNDATION SCHOLARS, & THE OTHER …, priority 2021, published 2025).

B1: IL-1α: human IL-1α (R&D systems) (protein, UniProt P01583 113-271, looked up)
Interleukin-1 alpha: SAPFSFLSNVKYNFMRIIKYEFILNDALNQSIIRANDQYLTAAALHNLDEAVKFDMGAYKSSKDDAKITVILRISKTQLYVTAQDEDQPVLLKEMPEIPKTITGSETNLLFFWETHGTKNYFTSVAHPNLFIATKQDYWVCLAGGPPSITDFQILENQA

Key:
[1] = test system: cldn5, tricellulin, ZO-1 and VE-cadherin mRNA in HRMEC; experiment: Real-time qPCR of junction components; type: cell-based, human; settings: 100 ng/ml IL-36β or 10 μM RepSox, 24 hours
Excerpt: […]

[2] = test system: HRMEC; experiment: Wound healing (scratch) assay in HRMEC, IL-18; type: cell-based, human; settings: IL-18, VEGF, bFGF each 50 ng/ml, closure expressed as % closure
Method: FIG. 16 illustrates HRMEC migration in response to IL-18 and IL-1α stimulation, wherein confluent HRMEC monolayers were scratched with a pipette tip and treated with IL-18 (50 ng/ml) or IL-1α (10 ng/ml) along with bFGF (50 ng/ml) or VEGF (50 ng/ml) as positive controls, wherein images were taken immediately following scratch (0 hrs) and at 4, 8 and 24 hours following scratch, wherein images were analysed using ImageJ imaging software, wherein data are presented as mean±SEM of 6 separate experiments in triplicate, wherein data were analysed using 2way ANOVA with Dunnett's multiple comparison test. (*p<0.05, *p<0.01, ****p<0.0001);
Cells were seeded on to a 12-well plate and grown until they reached confluency. 24 hours prior to the scratch, culture medium was replaced with 0.5% Serum media without supplements for 24 hours to induce cell quiescence. Cell monolayers were scratched once down the centre of the well using a p200 pipette tip and washed once with warmed DPBS to remove debris then replaced with 0.5% serum supplemented media with experimental treatments. Images were acquired using an Olympus IX51 inverted microscope with Cell^A imaging software (Olympus). Images were taken at baseline immediately following scratch and at suitable timepoints for up to 24 (HRMECs) or 48 hours (BMVECs). The area within the scratch was quantified using ImageJ software, and each timepoint was normalised to its baseline and expressed as % closure.

[3] = test system: IL-36R; settings: HRMEC, VEGF treatment over timepoints
[4] = test system: HRMEC; experiment: MTS assay of HRMEC proliferation with VEGF and IL-18; type: cell-based, human; settings: VEGF alone
Method: FIG. 17 illustrates HRMEC proliferation in response to VEGF is enhanced with IL-18 pre-treatment, wherein HRMECs were treated with increasing concentrations of VEGF alone or with a 24 hour pre-treatment of IL-18 at 10, 100 or 1000 ng/ml, wherein increasing VEGF induced an increase in cell proliferation which was enhanced following IL-18 treatment;
Cell viability was assessed using the CellTiter 96 AQueous One Solution cell proliferation MTS assay (Promega) as per the manufacturer's instructions. Cell monolayers were treated for times indicated where treatment supplemented media was then removed and incubated with 20 μl of CellTiter 96 AQueous One Solution in 100 μl of complete growth medium in a humidified incubator at 37° C. with 5% CO2for 1-4 hours. The absorbance of each well was measured at 490 nm using a SynergyMX plate reader (Biotek, Gen5™).

[5] = test system: occludin; experiment: Occludin expression in HRMEC (qPCR and immunoblotting); type: cell-based, human; settings: for expression of tight junction protein occludin: single cytokine
Method: FIG. 18 illustrates IL-18 drives expression of tight junction protein occludin and inhibits VEGF depletion of occluding, wherein HRMECS were treated with either VEGF, IL-18 or IL-1α for the timepoints indicated (top panel) and cells were prepared for RNA isolation and qPCR with expression of occluding measured, wherein HRMECs were treated with VEGF, IL-18 or IL-1 or combinations of these cytokines and cells were prepared for immunoblotting for expression of occludin and b-actin (lower panels);
Following transfer, membranes were blocked by incubating in 5% non-fat dried milk (Marvel) in TBS-T for 1 hour at room temperature whilst shaking. Membranes were incubated with primary antibody diluted in either 5% Marvel or BSA, depending on antibody specification, overnight at 4° C. with gentle agitation. Primary antibody was recovered and stored at −20. Membranes were washed three times in TBS-T for 5 minutes and membranes were incubated with secondary antibody, diluted in 5% Marvel, for 1 hour at room temperature. Secondary antibody was removed and discarded, and excess secondary was removed from the membranes by three 5-minute washes in TBS-T.
All RT-PCR assays were carried out using the SensiFAST SYBR Hi-ROX Kit (Bioline) with primers designed using Primer-BLAST (NCBI). For each target a master-mix comprising of 4 μl SYBR Green mix, 0.5 μl of Forward primer (4 μM) and 0.5 μl of Reverse primer (4 μM) along and 3 μl of RNAse free H2O was prepared and mixed thoroughly by vortexing. 8 μl of master-mix was added to each well of a 0.1 mL MicroAMP® Fast 96-well Reaction Plate (Applied Biosystems), along with 2 μl of cDNA and sealed using Optical adhesive film (Applied Biosystems) and spun down for 30 seconds in a centrifuge fitted with microplate rotor (Eppendorf) before running. Plate were run using a QuantStudio 3 real-time PCR System (Applied Biosystems) or the StepOnePlus Real-Time PCR System (Applied Biosystems), with run conditions set as: 50° C. for 2 mins, 95° C. for 10 minutes, 40 cycles of 95° C. for 15 seconds then 60° C. for 1 minute. To assess the quality of Primers a melt-curve stage was added: 95° C. for 1 second, 60° C. for 20 seconds, 95° C. for 1 second. Data were analysed using the QuantStudio™ Design & Analysis software (Applied Biosystems) and using the comparative Ct (ΔΔCt) method where test samples were normalised to endogenous control (β-Actin) followed by normalising the ΔCt of test samples to sample control (untreated sample), then calculating 2^−ΔΔCt to find the relative fold change of test samples over sample control.

| Molecule | ZO-1 transcript (qPCR) [1] | mean difference in wound closure vs no treatment (xdiff) ([2]; 8 hours post scratch) | mean difference in wound closure vs no treatment (xdiff) ([2]; 24 hours post scratch) | IL-36R expression [3] | HRMEC proliferation with increasing doses of VEGF [4] | expression of tight junction protein occludin [5] | rescue of VEGF mediated occludin inhibition ([5]; combination with VEGF, immunoblotting) |
| --- | --- | --- | --- | --- | --- | --- | --- |
| Cc1cccc(-c2[nH]ncc2-c2ccc3ncccc3n2)n1 [RepSox] | appeared unaffected |  |  |  |  |  |  |
| FGF: bFGF (50 ng/ml) used as positive control in scratch assay |  | −4.366 | −28.4 |  |  |  |  |
| VEGF |  | −9.35 | −12.25 | reduces IL-36R expression | increase in proliferation up to 5 ng/ml | reduced expression of occludin |  |
| B1 |  |  |  |  |  | reduced expression of occludin | does not rescue VEGF mediated occludin inhibition |
